Data published in patent EP1988080A1, “Insecticidal substituted 2-aminoindanes” (Bayer CropScience AG, priority 2007, dated 2008).

Experiments:
Tetranychus urticae = assay: Tetranychus-test, OP-resistant (spray application); assay type: in vivo; details: spray on French bean
Description: Tetranychus-test, OP-resistant (spray application)
(§1) To produce a suitable preparation of active compound, 1 part by weight of active compound is mixed with the stated amount of solvent and emulsifier, and the concentrate is diluted with emulsifier-containing water to the desired concentration.
French bean (Phaseolus vulgaris) which are heavily infested with all stages of the two spotted spidermite (Tetranychus urticae), are sprayed with a preparation of the active ingredient at the desired concentration.
(§2) After the specified period of time, mortality in % is determined. 100 % means that all spider mites have been killed; o % means that none of the […] have been killed.

Myzus persicae [1] = assay: Myzus persicae-test (Spray application); assay type: in vivo; details: application rate of 500 g/ha; spray on Chinese cabbage leaf-disks, all instars
Description: Myzus persicae-test (Spray application)
as §1
Chinese cabbage (Brassica pekinensis) leaf-disks infected with all instars of the green peach aphid (Myzus persicae), are sprayed with a preparation of the active ingredient at the desired concentration.
(§3) After the specified period of time, mortality in % is determined. 100 % means that all aphids have been killed; o % means that none of the […] have been killed.

[2] = logP determination (PhysData, logP^1); details: for logP^1: stated in preparation examples; for PhysData (logP (HCOOH)): HPLC gradient method, acetonitrile/0.1% HCOOH, EEC-Directive 79/831, Annex V.A8
Myzus persicae [3] = assay: Myzus-test (oral); assay type: in vivo; details: oral (suction)
Description: as §1
Hollow-ware are located with all instars of the green peach aphid (Myzus persicae). The treatement is carried out by suction of the preparation of active compound of the desired concentration.
as §3

Boophilus microplus = assay: Boophilus microplus-test (injection); assay type: in vivo; details: application rate of 20 µg/animal; injection in the abdomen
Description: Boophilus microplus-test (injektion)
as §1
The solution of the active compound is injected in the abdomen (Boophilus microplus); the animals are transferred into a cup and stayed in a rooming with an air condition.
After the specified period of time, the efficiany mortality in % is determined. 100 % means that no tick has lay fertile eggs.

Phaedon cochleariae = assay: Phaedon-test (spray application); assay type: in vivo; details: application rate of 500 g/ha; spray on Chinese cabbage leaf-disks, larvae
Description: Phaedon-test (spray application)
as §1
Chinese cabage (Brassica pekinesis) leafs-disks are treated by being sprayed with the preparation of the active compound of the desired concentration nd are, after drying, infested with mustard beetle larvae (Phaedon cochleariae).
as §2

[4] = Table I-1, cells marked (A) are 1H-NMR, not logP

| SMILES | activity (mortality in %) (Myzus persicae [1]) [%] | PhysData (logP^1) [2, 4] | chromatographic logP (physchem) | other results |
| --- | --- | --- | --- | --- |
| c1ccc2c(c1)CC(N=C1NCCO1)C2 [1-1, 2-[2-(2,3-dihydro-1H-inden)-amino]-4,5-dihydrooxazole] | ≥ 80 | 0.81 |  | activity (mortality in %) (Tetranychus urticae; application rate of 100 g/ha): ≥ 80%; activity (mortality in %) (Myzus persicae [3]; application rate of 20 ppm): ≥ 80% |
| CNC(=S)N1CCOC1=NC1Cc2ccccc2C1 [1-2] | ≥ 80 | 2.36 |  | logP^1 [2]: 2.36; activity (mortality in %) (Myzus persicae [3]; application rate of 20 ppm): ≥ 80% |
| CCNC(=S)N1CCOC1=NC1Cc2ccccc2C1 [1-5] | ≥ 80 | 3.46 |  |  |
| FC(F)(F)CNC(=S)N1CCOC1=NC1Cc2ccccc2C1 [1-6] | ≥ 80 | 4.28 |  |  |
| COCCNC(=S)N1CCOC1=NC1Cc2ccccc2C1 [1-7] | ≥ 80 |  | 3.25 | activity (mortality in %) (Tetranychus urticae; application rate of 500 g/ha): ≥ 80%; efficiency (100 % means that no tick has lay fertile eggs) (Boophilus microplus): ≥ 80% |
| COC(=O)CNC(=S)N1CCOC1=NC1Cc2ccccc2C1 [1-8] |  | 3.20 |  | activity (mortality in %) (Myzus persicae [3]; application rate of 20 ppm): ≥ 80% |
| CC(=O)NC(=S)N1CCOC1=NC1Cc2ccccc2C1 [1-10] |  | 2.53 |  |  |
| O=C(NC(=S)N1CCOC1=NC1Cc2ccccc2C1)c1ccccc1 [1-11] |  | 3.11 |  |  |
| COC(CNC(=S)N1CCOC1=NC1Cc2ccccc2C1)OC [1-12] | ≥ 80 |  | 3.6 | activity (mortality in %) (Phaedon cochleariae): ≥ 80% |
| CCCC(C)NC(=S)N1CCOC1=NC1Cc2ccccc2C1 (centres unmarked) [1-13] | ≥ 80 |  | 5 | activity (mortality in %) (Phaedon cochleariae): ≥ 80% |
| CCC(CC)NC(=S)N1CCOC1=NC1Cc2ccccc2C1 [1-14] | ≥ 80 | 4.90 |  |  |
| S=C(NCC1CC1)N1CCOC1=NC1Cc2ccccc2C1 [1-16] | ≥ 80 | 3.24 |  |  |
| C=CCNC(=S)N1CCOC1=NC1Cc2ccccc2C1 [1-17] | ≥ 80 | 3.75 |  |  |
| CCCNC(=S)N1CCOC1=NC1Cc2ccccc2C1 [1-18] | ≥ 80 | 3.94 |  |  |
| CCCCNC(=S)N1CCOC1=NC1Cc2ccccc2C1 [1-19] | ≥ 80 | 4.46 |  |  |
| CC(NC(=S)N1CCOC1=NC1Cc2ccccc2C1)C(F)(F)F (centres unmarked) [1-20] | ≥ 80 | 4.62 |  |  |
| CC(C)CNC(=S)N1CCOC1=NC1Cc2ccccc2C1 [1-21] | ≥ 80 | 4.51 |  |  |
| COC(=O)CCNC(=S)N1CCOC1=NC1Cc2ccccc2C1 [1-22] | ≥ 80 | 3.2 |  |  |
| CCOC(=O)CC(C)NC(=S)N1CCOC1=NC1Cc2ccccc2C1 (centres unmarked) [1-23] |  | 4.0 |  | activity (mortality in %) (Phaedon cochleariae): ≥ 80% |

| SMILES | activity (mortality in %) (Myzus persicae [1]) [%] | PhysData (logP^1) [2, 4] | chromatographic logP (physchem) | other results |
| --- | --- | --- | --- | --- |
| COC(=O)CCCNC(=S)N1CCOC1=NC1Cc2ccccc2C1 [1-24] |  | 3.6 |  |  |
| COC(=O)C(NC(=S)N1CCOC1=NC1Cc2ccccc2C1)C(C)C (centres unmarked) [1-25] | ≥ 80 | 4.4 |  |  |
| CCOC(=O)C(C)NC(=S)N1CCOC1=NC1Cc2ccccc2C1 (centres unmarked) [1-26] | ≥ 80 | 4.2 |  |  |
| CCC(NC(=S)N1CCOC1=NC1Cc2ccccc2C1)C(=O)OC (centres unmarked) [1-27] | ≥ 80 | 4.0 |  |  |
| S=C(NCC1CCCO1)N1CCOC1=NC1Cc2ccccc2C1 (centres unmarked) [1-28] | ≥ 80 |  | 3.6 |  |
| FC(F)(F)C1CCC(NC(=S)N2CCOC2=NC2Cc3ccccc3C2)CC1 (centres unmarked) [1-29] |  |  | 5.1 |  |
| CC(C)NC(=S)N1CCOC1=NC1Cc2ccccc2C1 [1-30] | ≥ 80 | 4.0 |  |  |
| S=C(NC1CC1)N1CCOC1=NC1Cc2ccccc2C1 [1-31] |  | 3.5 |  |  |
| S=C(NC1CCCC1)N1CCOC1=NC1Cc2ccccc2C1 [1-32] | ≥ 80 |  | 4.74 |  |
| FC(F)(F)C1CCCC(NC(=S)N2CCOC2=NC2Cc3ccccc3C2)C1 (centres unmarked) [1-33] |  |  | 4.7 |  |
| S=C(NCc1ccccc1)N1CCOC1=NC1Cc2ccccc2C1 [1-34] |  | 5.2 |  |  |
| CC(NC(=S)N1CCOC1=NC1Cc2ccccc2C1)c1ccccc1 (centres unmarked) [1-35] |  | 4.4 |  |  |
| S=C(NCc1ccc(Cl)cc1)N1CCOC1=NC1Cc2ccccc2C1 [1-36] | ≥ 80 |  | 4.9 |  |
| S=C(NCc1cccc(Cl)c1)N1CCOC1=NC1Cc2ccccc2C1 [1-37] | ≥ 80 |  | 4.9 |  |
| S=C(NCc1ccccc1Cl)N1CCOC1=NC1Cc2ccccc2C1 [1-38] |  |  | 4.9 |  |
| S=C(NCc1ccc2c(c1)OCO2)N1CCOC1=NC1Cc2ccccc2C1 [1-39] | ≥ 80 |  | 4.1 |  |
| S=C(NCCc1ccccc1)N1CCOC1=NC1Cc2ccccc2C1 [1-40] |  | 4.6 |  |  |
| S=C(NCCc1ccc(Cl)cc1)N1CCOC1=NC1Cc2ccccc2C1 [1-41] |  |  | 5.1 |  |
| S=C(NCc1cccnc1)N1CCOC1=NC1Cc2ccccc2C1 [1-42] | ≥ 80 |  | 2 |  |

| SMILES | activity (mortality in %) (Myzus persicae [1]) [%] | PhysData (logP^1) [2, 4] | chromatographic logP (physchem) | other results |
| --- | --- | --- | --- | --- |
| CC(NC(=S)N1CCOC1=NC1Cc2ccccc2C1)c1ccc(Cl)cc1 (centres unmarked) [1-43] |  |  | 5.3 |  |
| CC(NC(=S)N1CCOC1=NC1Cc2ccccc2C1)c1ccccc1Cl (centres unmarked) [1-44] |  |  | 5.2 |  |
| CC(NC(=S)N1CCOC1=NC1Cc2ccccc2C1)c1cccc(Cl)c1 (centres unmarked) [1-45] | ≥ 80 |  | 5.3 |  |
| Cc1ccc(CNC(=S)N2CCOC2=NC2Cc3ccccc3C2)cc1 [1-46] |  |  | 4.8 |  |
| Fc1ccc(CNC(=S)N2CCOC2=NC2Cc3ccccc3C2)cc1 [1-47] |  |  | 4.4 |  |
| COc1ccc(CNC(=S)N2CCOC2=NC2Cc3ccccc3C2)cc1OC [1-48] |  |  | 3.7 |  |
| S=C(NCc1ccc(Cl)cc1Cl)N1CCOC1=NC1Cc2ccccc2C1 [1-49] |  |  | 5.7 |  |
| S=C(Nc1ccccn1)N1CCOC1=NC1Cc2ccccc2C1 [1-50] | ≥ 80 |  | 1.6 | activity (mortality in %) (Phaedon cochleariae): ≥ 80% |
| Fc1ccc2c(c1)CC(N=C1NCCO1)C2 (centres unmarked) [1-64] |  | 0.73 |  |  |
| S=C(NCCc1cccc(Cl)c1)N1CCOC1=NC1Cc2ccccc2C1 [1-120] |  |  | 5.1 |  |
| c1ccc2c(c1)CC(NC1=NCCS1)C2 [2-1, 2-[2-(2,3-dihydro-1H-inden)-amino]-4,5-dihydrothiazole] |  |  |  | PhysData (logP^1) ([2]; Table I-2): 0.66 |
| CNC(=S)N1CCSC1=NC1Cc2ccccc2C1 [2-2] |  |  |  | PhysData (logP^1) ([2]; Table I-2): 4.05 |
| FC(F)(F)CNC(=S)N1CCSC1=NC1Cc2ccccc2C1 [2-6] |  |  |  | PhysData (logP^1) ([2]; Table I-2): 4.80; logP^1 [2]: 4.8 |
| COCCNC(=S)N1CCSC1=NC1Cc2ccccc2C1 [2-7] |  |  |  | PhysData (logP^1) ([2]; Table I-2): 4.11 |
| CCOC(=O)CNC(=S)N1CCSC1=NC1Cc2ccccc2C1 [2-8] |  |  |  | PhysData (logP^1) ([2]; Table I-2): 4.41 |
| c1ccc2c(c1)CC(NC1=NCCN1)C2 [3-1] |  |  |  | PhysData (logP (HCOOH)) ([2]; Table I-3): 0.52 |
| COCCNC(=S)N1CCNC1=NC1Cc2ccccc2C1 [3-7] |  |  |  | PhysData (logP (HCOOH)) ([2]; Table I-3): 1.46; logP^1 [2]: 1.46 |
| O=C(NCCCl)NC1Cc2ccccc2C1 [4-1] | ≥ 80 |  |  | PhysData (logP (HCOOH)) ([2]; Table 1-4): 1.92; activity (mortality in %) (Myzus persicae [3]; application rate of 100 ppm): ≥ 80% |
